Assay results published in PubChem BioAssay (NCI).
Where “and” joins values, the source holds several entries; their conditions need not be identical. Equal entries are not always repeated.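 Growth conditions: 96-well plates. Treatment: test compound, 48 hours, 5 concentrations. Analysis: linear interpolation between bracketing concentrations; unreached endpoints set to highest concentration. Here, GI50 denotes the concentration required for 50% inhibition of growth. Definition used: TGI = concentration required for complete inhibition of growth.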

Tests used:
Experiment in all cases: NCI anticancer screen, dose series, 48 h
U251 CNS = system: U251 CNS
SK-MEL-5 melanoma = system: SK-MEL-5 melanoma
MDA-MB-231 breast = system: MDA-MB-231 breast
A549 NSCLC = system: A549 NSCLC
UO-31 renal = system: UO-31 renal
SR leukemia = system: SR leukemia
UACC-257 melanoma = system: UACC-257 melanoma
OVCAR-3 ovarian = system: OVCAR-3 ovarian
LOX IMVI melanoma = system: LOX IMVI melanoma
SN12C renal = system: SN12C renal

| Compound | TGI (U251 CNS) | TGI (SK-MEL-5 melanoma) | TGI (MDA-MB-231 breast) | TGI (A549 NSCLC) | TGI (UO-31 renal) | TGI (SR leukemia) [µM] | TGI (UACC-257 melanoma) | TGI (OVCAR-3 ovarian) | TGI (LOX IMVI melanoma) [µM] | GI50 (U251 CNS) [µM] | GI50 (SK-MEL-5 melanoma) [µM] | GI50 (SN12C renal) | TGI (SN12C renal) | GI50 (A549 NSCLC) | GI50 (UO-31 renal) [µM] | GI50 (UACC-257 melanoma) [µM] | GI50 (LOX IMVI melanoma) [µM] | GI50 (SR leukemia) [µM] | GI50 (OVCAR-3 ovarian) [µM] |
| --- | --- | --- | --- | --- | --- | --- | --- | --- | --- | --- | --- | --- | --- | --- | --- | --- | --- | --- | --- |
| Cc1c2oc(=O)c(C#N)cc2c2ccccn12 | > 100 µM | > 100 µM | > 100 µM | > 100 µM | > 100 µM | > 100 | > 100 µM | 69.5 µM | > 100 | – | – | – | – | – | – | – | – | – | – |
| CC(C)=CC(=O)OC1C2C(C)=CC(=O)C(O)C2(C)C2C3(O)OCC24C(CC(=O)OC14)C(C)C3O (centres undefined) | 0.0192 µM and 0.0314 µM | 0.01 µM and 0.0209 µM | 0.0596 µM and 0.0264 µM | 0.598 µM and 1.55 µM and 2.22 µM | 0.545 µM and 4.78 µM and 1.03 µM | – | 0.0436 µM and 0.0432 µM | 0.0226 µM and 0.0354 µM | – | 0.02 | 0.02 | 0.0133 µM and 0.0406 µM | 0.245 µM and 0.089 µM and 0.327 µM | 0.0545 µM and 0.178 µM | 0.829 | 0.02 | 0.0298 | – | – |
| COc1cccc(C2C(C#N)=C(N)Oc3cc(OCCCCCC[P+](c4ccccc4)(c4ccccc4)c4ccccc4)ccc32)c1 (centres undefined) | – | – | – | 4.51 µM | 4.69 µM | 1.92 | – | 1.37 µM | – | – | – | – | – | 1.53 µM | 1.91 | – | – | 0.36 | 0.382 |
| O=Cn1c2ccccc2c2ccccc21 | > 100 µM | > 100 µM | – | > 100 µM | > 100 µM | > 100 | > 100 µM | > 100 µM | > 100 | – | – | – | > 100 µM | – | – | – | – | – | – |
| N#Cc1nc(CN2C(=O)c3ccccc3C2=O)oc1N | > 100 µM | > 100 µM | > 100 µM | > 100 µM | – | > 100 | > 100 µM | > 100 µM | – | – | – | – | > 100 µM | – | – | – | – | – | – |
| COC(=O)c1c(CC(=O)OC(C)C)cc2n(c1=O)Cc1c-2nc2ccccc2c1OC | > 100 µM | > 100 µM | – | > 100 µM | > 100 µM | > 100 | > 100 µM | > 100 µM | > 100 | – | – | – | > 100 µM | – | – | – | – | – | – |
| COc1ccc(-c2csc3c2[N+]2(C)C=CC=C2C3N2CCCC2)cc1 (centres undefined) | 23.3 µM | 28.8 µM | > 100 µM | > 100 µM | > 100 µM | 35.4 | 93.5 µM | 52.6 µM | > 100 | – | – | – | – | – | – | – | – | – | – |
| C[C@@H]([C@H]1CC[C@@]2(C)[C@@H]3CC[C@@H]4C(=CC3=CC[C@]12C)CC[C@H](N(C)C)C4(C)C)N(C)C | > 100 µM | > 100 µM | > 100 µM | – | – | > 100 | > 100 µM | > 100 µM | > 100 | – | – | – | > 100 µM | – | – | – | – | – | – |
| NCCCNCCSP(=O)(O)O | > 750 µM | > 750 µM | – | > 750 µM | > 750 µM | – | > 750 µM | > 750 µM | > 750 | – | – | – | > 750 µM | – | – | – | – | – | – |
| Cc1cc2ccccc2n2c1nc1ccc(O)cc12 | > 10 µM | > 10 µM | > 10 µM | > 10 µM | – | > 10 | > 10 µM | > 10 µM | – | – | – | – | > 10 µM | – | – | – | – | – | – |
| C=CCCCN(C(=O)c1ccccc1)c1ccc(C(=O)OC)o1 | – | > 100 µM | > 100 µM | > 100 µM | > 100 µM | – | > 100 µM | – | > 100 | – | – | – | > 100 µM | – | – | – | – | – | – |
| CN1COCN=C1NC#N | – | – | – | > 100 µM | > 100 µM | – | > 100 µM | > 100 µM | > 100 | – | – | – | > 100 µM | – | – | – | – | – | – |
